Measured values from PubChem BioAssay AID328 (DTP/NCI, 2004).
“And” between values parts separate entries of the source, which are not always exact repeats. Equal entries are not always repeated. Inconclusive results and toxic doses are left out. Rule for the calls: active = survival T/C of 150% or more; inactive = T/C below 125% in these data. Non-standard residues stand in square brackets, D forms with d. Residues, ends and D or L forms follow the SMILES beside them. ξ: configuration not given here. *: point of attachment. Boc = CC(C)(C)OC(=O)*; ξM = CSCCC(N)C(=O)O

System: BDF1 mice, P388 leukemia ip, median survival T/C
Experiment: NCI In Vivo Anticancer Drug Screen. Data for tumor model P388 Leukemia (intraperitoneal) in B6D2F1 (BDF1) mice
Conditions: endpoint: median survival time, higher = longer survival
Method in brief: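 Steps: implant the tumour, treat one group with compound and another with vehicle, record survival, then divide treated by control.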

[1] = dose: 75.0 mg/kg/injection, schedule: Q01DX009 (ip), vehicle: saline with Tween-80
[2] = dose: 50.0 mg/kg/injection, schedule: Q01DX009 (ip), vehicle: saline
[3] = dose: 100.0 mg/kg/injection, schedule: Q01DX009 (ip), vehicle: saline
[4] = dose: 100.0 mg/kg/injection, schedule: Q04DX003 (ip), vehicle: Klucel (hydroxypropylcellulose) (HPC)
[5] = dose: 200.0 mg/kg/injection, schedule: Q04DX003 (ip), vehicle: Klucel (hydroxypropylcellulose) (HPC)
[6] = dose: 400.0 mg/kg/injection, schedule: Q04DX003 (ip), vehicle: Klucel (hydroxypropylcellulose) (HPC)
[7] = dose: 100.0 mg/kg/injection, schedule: Q04DX003 (ip), vehicle: saline
[8] = dose: 200.0 mg/kg/injection, schedule: Q04DX003 (ip), vehicle: saline
[9] = dose: 50.0 mg/kg/injection, schedule: Q01DX009 (ip), vehicle: saline with Tween-80
[10] = dose: 100.0 mg/kg/injection, schedule: Q01DX009 (ip), vehicle: saline with Tween-80
[11] = dose: 200.0 mg/kg/injection, schedule: Q01DX009 (ip), vehicle: saline with Tween-80

Measured: T/C

CC(C)=CCC1=C(O)c2ccccc2C(=O)C1=O
inactive: dose: 25.0 mg/kg/injection, schedule: Q#A X018 (oral), vehicle: other 100 % of control | dose: 50.0 mg/kg/injection, schedule: Q01DX010 (ip), vehicle: other 104 % of control | dose: 50.0 mg/kg/injection, schedule: Q01DX010 (ip), vehicle: water 118 % of control | dose: 50.0 mg/kg/injection, schedule: Q#A X018 (oral), vehicle: other 100 % of control | dose: 50.0 mg/kg/injection, schedule: Q#A X020 (ip), vehicle: other 100 % of control | dose: 75.0 mg/kg/injection, schedule: Q01DX010 (ip), vehicle: water 100 % of control and 109 % of control | dose: 100.0 mg/kg/injection, schedule: Q01DX010 (ip), vehicle: other 118 % of control | dose: 100.0 mg/kg/injection, schedule: Q#A X018 (oral), vehicle: other 100 % of control | dose: 100.0 mg/kg/injection, schedule: Q#A X020 (ip), vehicle: other 90 % of control | dose: 125.0 mg/kg/injection, schedule: Q01DX010 (ip), vehicle: water 95 % of control | dose: 150.0 mg/kg/injection, schedule: Q01DX010 (ip), vehicle: water 90 % of control and 104 % of control | dose: 150.0 mg/kg/injection, schedule: Q#A X018 (ip), vehicle: other 100 % of control | dose: 150.0 mg/kg/injection, schedule: Q#A X020 (ip), vehicle: other 120 % of control

O=C1C[C@H]2[C@H](CO)[C@@H](OC(=O)c3ccc(-c4ccccc4)cc3)C[C@H]2O1
inactive: dose: 12.5 mg/kg/injection, schedule: Q01DX009 (ip), vehicle: Klucel (hydroxypropylcellulose) (HPC) 105 % of control | dose: 25.0 mg/kg/injection, schedule: Q01DX009 (ip), vehicle: Klucel (hydroxypropylcellulose) (HPC) 115 % of control | dose: 50.0 mg/kg/injection, schedule: Q01DX009 (ip), vehicle: Klucel (hydroxypropylcellulose) (HPC) 105 % of control | [1] 120 % of control

CC1=C(Br)C(=O)C(c2c(C)c(Br)c(C)c([N+](=O)[O-])c2C)=C(Br)C1=O
inactive: dose: 100.0 mg/kg/injection, schedule: Q01DX001 (ip), vehicle: Klucel (hydroxypropylcellulose) (HPC) 100 % of control | dose: 200.0 mg/kg/injection, schedule: Q01DX001 (ip), vehicle: Klucel (hydroxypropylcellulose) (HPC) 110 % of control | dose: 400.0 mg/kg/injection, schedule: Q01DX001 (ip), vehicle: Klucel (hydroxypropylcellulose) (HPC) 100 % of control

CNc1ccc([N+](=O)[O-])c2no[n+]([O-])c12
inactive: dose: 15.0 mg/kg/injection, schedule: Q01DX009 (ip), vehicle: saline with Tween-80 90 % of control | dose: 30.0 mg/kg/injection, schedule: Q01DX009 (ip), vehicle: saline with Tween-80 93 % of control | dose: 60.0 mg/kg/injection, schedule: Q01DX009 (ip), vehicle: saline with Tween-80 102 % of control

CC(CCCSC(=N)N)SC(=N)N (stereo not drawn)
inactive: dose: 12.5 mg/kg/injection, schedule: Q01DX009 (ip), vehicle: saline 103 % of control | dose: 25.0 mg/kg/injection, schedule: Q01DX009 (ip), vehicle: saline 96 % of control and 105 % of control | [2] 97 % of control and 122 % of control | [3] 102 % of control and 103 % of control

COc1c(C(C)(C)C)cc([N+](=O)[O-])c(C)c1[N+](=O)[O-]
inactive: [4] 100 % of control | [5] 100 % of control | [6] 95 % of control

CC(C)(C)N1CC1CN (stereo not drawn)
inactive: [2] 90 % of control | [3] 90 % of control | dose: 200.0 mg/kg/injection, schedule: Q01DX009 (ip), vehicle: saline 89 % of control | dose: 400.0 mg/kg/injection, schedule: Q01DX009 (ip), vehicle: saline 121 % of control

CC(O)(C(=O)O)c1ccccc1 (stereo not drawn) (tested in a mixture with another compound)
inactive: dose: 100.0 mg/kg/injection, schedule: Q01DX001 (ip), vehicle: saline 103 % of control | [7] 100 % of control | dose: 200.0 mg/kg/injection, schedule: Q01DX001 (ip), vehicle: saline 107 % of control | [8] 113 % of control | dose: 400.0 mg/kg/injection, schedule: Q01DX001 (ip), vehicle: saline 107 % of control | dose: 400.0 mg/kg/injection, schedule: Q04DX003 (ip), vehicle: saline 95 % of control

O=C(Cc1ccc([N+](=O)[O-])cc1)c1ccccc1
inactive: [4] 112 % of control | [5] 104 % of control | [6] 91 % of control

CSCCCNC(=O)c1csc(-c2csc(CCNC(=O)c3ccccc3)n2)n1
inactive: dose: 8.0 mg/kg/injection, schedule: Q01DX009 (ip), vehicle: saline 100 % of control | dose: 16.0 mg/kg/injection, schedule: Q01DX009 (ip), vehicle: saline 100 % of control | dose: 32.0 mg/kg/injection, schedule: Q01DX009 (ip), vehicle: saline 110 % of control | dose: 64.0 mg/kg/injection, schedule: Q01DX009 (ip), vehicle: saline 120 % of control

Cc1[nH][nH]c(=O)c1N=O
inactive: dose: 18.75 mg/kg/injection, schedule: Q01DX009 (ip), vehicle: saline with Tween-80 92 % of control | dose: 37.5 mg/kg/injection, schedule: Q01DX009 (ip), vehicle: saline with Tween-80 99 % of control | [1] 99 % of control

COC1(C(C)(C)C)C=C(C)/C(=C2\C(=O)Oc3c2cc(C)cc3C(C)(C)C)O1 (stereo not drawn)
inactive: [9] 99 % of control | [10] 92 % of control | [11] 96 % of control

CCCCN=CC(C)(C)NCCCC
inactive: [2] 91 % of control and 99 % of control | dose: 50.0 mg/kg/injection, schedule: Q04DX003 (ip), vehicle: saline 103 % of control | [3] 98 % of control and 107 % of control | [7] 103 % of control | [8] 100 % of control

Clc1nn2cnnc2c2ccccc12
inactive: dose: 5.0 mg/kg/injection, schedule: Q01DX009 (ip), vehicle: saline 101 % of control | dose: 10.0 mg/kg/injection, schedule: Q01DX009 (ip), vehicle: saline 101 % of control

CSCCC(NC(=O)CNC(=O)OC(C)(C)C)C(=O)NCC(=O)O (stereo not drawn) (Boc-Gly-[ξM]-Gly-OH)
inactive: dose: 50.0 mg/kg/injection, schedule: Q01DX005 (ip), vehicle: saline with Tween-80 98 % of control | dose: 100.0 mg/kg/injection, schedule: Q01DX005 (ip), vehicle: saline with Tween-80 95 % of control | dose: 200.0 mg/kg/injection, schedule: Q01DX005 (ip), vehicle: saline with Tween-80 95 % of control

Cc1cnccc1Br
inactive: dose: 12.5 mg/kg/injection, schedule: Q04DX003 (ip), vehicle: water 103 % of control | dose: 25.0 mg/kg/injection, schedule: Q04DX003 (ip), vehicle: water 103 % of control | dose: 50.0 mg/kg/injection, schedule: Q04DX003 (ip), vehicle: water 103 % of control | dose: 100.0 mg/kg/injection, schedule: Q04DX003 (ip), vehicle: water 97 % of control | dose: 200.0 mg/kg/injection, schedule: Q04DX003 (ip), vehicle: water 94 % of control

CCCCCCCCCCNC1CC(OC2CC(O)(C(C)=O)Cc3c(O)c4c(c(O)c32)C(=O)c2c(OC)cccc2C4=O)OC(C)C1O (stereo not drawn)
inactive: dose: 3.13 mg/kg/injection, schedule: Q01DX009 (ip), vehicle: water 108 % of control | dose: 6.25 mg/kg/injection, schedule: Q01DX009 (ip), vehicle: water 103 % of control

S=C(Cc1ccccc1)N1CCN(c2ccc(Cl)cc2)CC1
inactive: [9] 104 % of control | [10] 100 % of control | [11] 100 % of control
